Results on 18 compounds are retold here after patent publication EP4813463A2, “TYK2 INHIBITORS AND COMPOSITIONS AND METHODS THEREOF” (Lynk Pharmaceuticals Co. Ltd., priority 2023, dated 2024).

In one assay the target is T1, JAK1-JH2 domain (Homo sapiens, UniProt P23458).
T1 construct: JAK1-JH2 domain or TYK2-JH2 domain enzyme in assay buffer
Put plainly: Binding activity test for JH2 domain of JAK1 (Tb-antibody/tracer FRET). In short, it runs like this: (§1)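 IC50 values (nM) come from TR-FRET readings taken after a 25°C incubation followed by overnight at 4°C. Each well held JH2 domain protein, Tb-antibody, tracer and test compound titrated in 11 threefold steps, with DMSO high and low controls.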

A further assay deals with T2, TYK2-JH2 domain (Homo sapiens, UniProt P29597).
T2 construct: JAK1-JH2 domain or TYK2-JH2 domain enzyme in assay buffer
T2 sequence (P29597 589-875 limits assumed): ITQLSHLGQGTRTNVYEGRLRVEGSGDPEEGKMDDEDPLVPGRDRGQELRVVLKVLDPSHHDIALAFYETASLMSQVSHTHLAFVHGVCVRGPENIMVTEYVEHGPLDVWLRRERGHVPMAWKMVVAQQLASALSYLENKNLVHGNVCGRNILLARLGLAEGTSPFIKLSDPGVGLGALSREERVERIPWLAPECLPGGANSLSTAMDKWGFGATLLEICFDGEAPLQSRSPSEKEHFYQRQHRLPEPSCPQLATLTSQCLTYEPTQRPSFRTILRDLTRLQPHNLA
The experiment in a line: Binding activity test for JH2 domain of TYK2 (Tb-antibody/tracer FRET). In a few lines: as §1

The subject of assay [1] is Ba/F3-FL-TYK2-P760L cells. Put plainly: Anti-proliferative assay in engineered Ba/F3 cells (Cell-Titer Glo, 72 h). The format is cell-based. The note with it: Mus musculus, concentration that causes 50% growth inhibition, read-out: Baf3-FL-T2P760L. In a few lines: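 IC50 from luminescent ATP viability after 72 h compound exposure (37 °C, 5% CO2), % inhibition normalised to DMSO-treated cells minus medium blank. IL-3-free Ba/F3-FL-TYK2-P760L (Tel-JAK fusion) cells in 10% FBS RPMI-1640 received 9 three-fold doses, top 20 µM, 0.1% DMSO.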

[2] abbreviates: JH2 domain enzyme; 60 min at 25°C, then 4°C overnight; read-out: JAK1 JH2 Binding IC50.
[3] abbreviates: JH2 domain enzyme; 60 min at 25°C, then 4°C overnight; read-out: TYK2 JH2 Binding IC50.
Setting [4] is: BaF3, 72 h, 72 h compound treatment.
Setting [5] is: ratio of JAK1 JH2 to TYK2 JH2 binding IC50.

Structures are written as SMILES. Like-named read-outs stand apart in the source and are kept apart here.

T1 sequence (P23458 583-855 limits assumed): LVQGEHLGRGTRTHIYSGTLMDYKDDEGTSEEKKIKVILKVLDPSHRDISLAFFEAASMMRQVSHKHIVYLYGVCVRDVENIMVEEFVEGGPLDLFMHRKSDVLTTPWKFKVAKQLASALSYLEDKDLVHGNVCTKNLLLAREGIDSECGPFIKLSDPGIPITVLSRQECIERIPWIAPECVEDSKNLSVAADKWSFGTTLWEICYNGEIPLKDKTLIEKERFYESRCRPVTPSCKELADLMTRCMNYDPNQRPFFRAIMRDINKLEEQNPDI

For `[2H]C([2H])([2H])NC(=O)c1nnc(NC(=O)C2CC2)cc1Nc1cccc(-c2ncn(C)n2)c1C(C)O` (stereo not shown) [Example 89, 6-(Cyclopropanecarboxamido)-4-((2-(1-hydroxyethyl)-3-(1-methyl-1H-1,2,4-triazol-3-yl)phenyl)amino)-N-(methyl-d3)pyridazine-3-carboxamide], the IC50 was > 298 nM on JAK1-JH2 domain (setting [2]), > 298 nM on TYK2-JH2 domain (setting [3]) and > 5000 nM in assay [1] (setting [4]).

As for `COc1c([C@H](OC)C(F)(F)F)ccn2ncc(Nc3cc(NC(=O)C4CC4)ncc3C(O)C(F)(F)F)c12` (stereo partly drawn) [Example 90, N-(4-((4-methoxy-5-((S)-2,2,2-trifluoro-1-methoxyethyl)pyrazolo[1,5-a]pyridin-3-yl)amino)-5-(2,2,2-trifluoro-1-hydroxyethyl)pyridin-2-yl)cyclopropanecarboxamide], the values for the IC50 (at JAK1-JH2 domain (setting [2]); at TYK2-JH2 domain (setting [3]); in assay [1] (setting [4])) were > 298 nM, > 298 nM and > 5000 nM, respectively.

Regarding `COc1c([C@H](OC)C(F)(F)F)ccn2ncc(Nc3cc(NC(=O)C4CC4)ncc3C(=O)CC#N)c12` [Example 91, (S)-N-(5-(2-cyanoacetyl)-4-((4-methoxy-5-(2,2,2-trifluoro-1-methoxyethyl)pyrazolo[1,5-a]pyridin-3-yl)amino)pyridin-2-yl)cyclopropanecarboxamide], the IC50 at JAK1-JH2 domain (setting [2]) is > 298 nM; at TYK2-JH2 domain (setting [3]), 5.24 nM; in assay [1] (setting [4]), 1380 nM. On TYK2-JH2 domain (setting [5]), the JAK1/TYK2 selectivity is >56.93.

As to `COc1c([C@H](OC)C(F)(F)F)ccn2ncc(Nc3cc(NC(=O)C4CC4)ncc3C(O)CC#N)c12` (stereo partly drawn) [Example 92, N-(5-(2-cyano-1-hydroxyethyl)-4-((4-methoxy-5-((S)-2,2,2-trifluoro-1-methoxyethyl)pyrazolo[1,5-a]pyridin-3-yl)amino)pyridin-2-yl)cyclopropanecarboxamide], the IC50 on JAK1-JH2 domain (setting [2]) was 79.6 nM; on TYK2-JH2 domain (setting [3]) it was 26.5 nM; in assay [1] (setting [4]) it was 878 nM. Further, the JAK1/TYK2 selectivity at TYK2-JH2 domain (setting [5]) amounted to 3.00.

With `COC(=O)c1cnc(NC(=O)C2CC2)cc1Nc1cnn2ccc(C(C)C(F)(F)F)c(OC)c12` (stereo not shown) [Example 93, Methyl 6-(cyclopropanecarbonylamino)-4-[[4-methoxy-5-(2,2,2-trifluoro-1-methylethyl)pyrazolo[1,5-a]pyridin-3-yl]amino]pyridine-3-carboxylate], the IC50 is 63.7 nM on JAK1-JH2 domain (setting [2]), 1.24 nM at TYK2-JH2 domain (setting [3]) and 577 nM in assay [1] (setting [4]). In addition, the JAK1/TYK2 selectivity at TYK2-JH2 domain (setting [5]) is 51.39.

Turning to `COCOc1cnc(NC(=O)C2CC2)cc1Nc1cnn2ccc([C@H](OC)C(F)(F)F)c(OC)c12` [Example 94, (S)-N-(4-((4-methoxy-5-(2,2,2-trifluoro-1-methoxyethyl)pyrazolo[1,5-a]pyridin-3-yl)amino)-5-(methoxymethoxy)pyridin-2-yl)cyclopropanecarboxamide], the IC50 on JAK1-JH2 domain (setting [2]) turned out to be 193 nM; at TYK2-JH2 domain (setting [3]), 141 nM; in assay [1] (BaF3, 72 h compound treatment), 4630 nM. The JAK1/TYK2 selectivity on TYK2-JH2 domain (setting [5]) worked out at 1.37.

In the case of `COc1c([C@H](OC)C(F)(F)F)ccn2ncc(Nc3cc(NC(=O)C4CC4)ncc3OCC#N)c12` [Example 95, (S)-N-(5-(cyanomethoxy)-4-((4-methoxy-5-(2,2,2-trifluoro-1-methoxyethyl)pyrazolo[1,5-a]pyridin-3-yl)amino)pyridin-2-yl)cyclopropanecarboxamide], the IC50 on JAK1-JH2 domain (setting [2]) is > 298 nM; on TYK2-JH2 domain (setting [3]), 68.3 nM; in assay [1] (setting [4]), > 5000 nM. At TYK2-JH2 domain (setting [5]), the JAK1/TYK2 selectivity is given as >4.37.

As to `COC(=O)c1c(Nc2nn(C)c3ccc(C(OC)C(F)(F)F)c(OC)c23)cc(NC(=O)C2CC2)nc1N` (stereo not shown) [Example 96, Methyl 2-amino-6-(cyclopropanecarboxamido)-4-((4-methoxy-1-methyl-5-(2,2,2-trifluoro-1-methoxyethyl)-1H-indazol-3-yl)amino) nicotinate], the IC50 on JAK1-JH2 domain (read-out: JAK1 JH2 Binding IC50; JH2 domain enzyme; 60 min at 25°C, then 4°C overnight) was > 298 nM; on TYK2-JH2 domain (read-out: TYK2 JH2 Binding IC50; JH2 domain enzyme; 60 min at 25°C, then 4°C overnight), 93.6 nM; in assay [1] (BaF3, 72 h compound treatment), 2990 nM. On TYK2-JH2 domain (setting [5]), the JAK1/TYK2 selectivity is >3.19.

Consider `COC(=O)c1cnc2cc1Nc1cc(cc(-c3ccn(C)n3)c1OC)CCOCc1cccc(n1)N2` [Example 105, Methyl 10-methoxy-11-(1-methyl-1H-pyrazol-3-yl)-16-oxa-2,4,8,22-tetraazatetracyclo[16.3.1.1^{3,7}.1^{9,13}]tetracosa-1(22),3,5,7(24),9(23),10,12,18,20-nonaene-6-carboxylate], for which the figures for the IC50 (at JAK1-JH2 domain (setting [2]); on TYK2-JH2 domain (setting [3]); in assay [1] (setting [4])) were 232 nM, 1.21 nM and 66.8 nM, respectively. For the same compound, the JAK1/TYK2 selectivity at TYK2-JH2 domain (setting [5]) is 191.94.

As for `COC(=O)c1cnc(NC(=O)C2CC2)cc1Nc1n[nH]c2ccc(C(OC)C(F)(F)F)c(OC)c12` (stereo not shown) [Example 113, Methyl 6-(cyclopropanecarboxamido)-4-((4-methoxy-5-(2,2,2-trifluoro-1-methoxyethyl)-1H-indazol-3-yl)amino)nicotinate], the IC50 on JAK1-JH2 domain (setting [2]) was 74.5 nM; at TYK2-JH2 domain (setting [3]), 0.258 nM; in assay [1] (setting [4]), > 1000 nM. In addition, the JAK1/TYK2 selectivity on TYK2-JH2 domain (setting [5]) stood at 288.80.

Take `COC(=O)c1cnc(NC(=O)C2CC2)cc1Nc1nn(C)c2ccc(C(C)C(F)(F)F)c(OC)c12` (stereo not shown) [Example 123, Methyl 6-(cyclopropanecarboxamido)-4-((4-methoxy-1-methyl-5-(1,1,1-trifluoropropan-2-yl)-1H-indazol-3-yl)amino)nicotinate]: the IC50 is 174 nM on JAK1-JH2 domain (setting [2]), 0.37 nM on TYK2-JH2 domain (setting [3]) and 88.3 nM in assay [1] (setting [4]). On TYK2-JH2 domain (setting [5]), the JAK1/TYK2 selectivity is given as 470.33.

Consider `[2H]C([2H])([2H])O[C@@H](c1ccc2c(c(Nc3cc(NC(=O)C4CC45CC5)ncc3C(=O)OC)nn2C)c1OC)C(F)(F)F` (stereo partly drawn) [Example 136, Methyl 4-((4-methoxy-1-methyl-5-((S)-2,2,2-trifluoro-1-(methoxy-d3)ethyl)-1H-indazol-3-yl)amino)-6-(spiro[2.2]pentane-1-carboxamido)nicotinate], for which the IC50 on JAK1-JH2 domain (setting [2]) worked out at 77.8 nM; on TYK2-JH2 domain (setting [3]), 0.21 nM; in assay [1] (setting [4]), 21.2 nM. Besides, on TYK2-JH2 domain (setting [5]), the JAK1/TYK2 selectivity is recorded as 370.63.

`CCC(=O)c1cnc(NC(=O)C2CC2)cc1Nc1nn(C)c2ccc([C@H](O)C(F)(F)F)c(OC)c12` [Example 140, (S)-N-(4-((4-Methoxy-1-methyl-5-(2,2,2-trifluoro-1-hydroxyethyl)-1H-indazol-3-yl)amino)-5-propionylpyridin-2-yl)cyclopropanecarboxamide]: the IC50 on JAK1-JH2 domain (setting [2]) amounted to 4.36 nM; on TYK2-JH2 domain (setting [3]), 0.061 nM; in assay [1] (setting [4]), 0.463 nM. Besides, the JAK1/TYK2 selectivity on TYK2-JH2 domain (setting [5]) was determined as 71.43.

On to `[2H]C([2H])([2H])C([2H])([2H])C(=O)c1cnc(NC(=O)C2CC2)cc1Nc1nn(C)c2ccc([C@H](O)C(F)(F)F)c(OC)c12` [Example 154, (S)-N-(4-((4-methoxy-1-methyl-5-(2,2,2-trifluoro-1-hydroxyethyl)-1H-indazol-3-yl)amino)-5-(propanoyl-d5)pyridin-2-yl)cyclopropanecarboxamide], for which the IC50 stood at 6.88 nM at JAK1-JH2 domain (setting [2]), 0.066 nM at TYK2-JH2 domain (setting [3]) and 0.455 nM in assay [1] (setting [4]). At TYK2-JH2 domain (setting [5]), the JAK1/TYK2 selectivity was 104.27.

Take `[2H]C([2H])([2H])CC(=O)c1cnc(NC(=O)C2CC2)nc1Nc1cccc(-c2cnn(C)n2)c1OC` [Example 167, N-(4-((2-methoxy-3-(2-methyl-2H-1,2,3-triazol-4-yl)phenyl)amino)-5-(propanoyl-3,3,3-d3)pyrimidin-2-yl)cyclopropanecarboxamide]: the IC50 at JAK1-JH2 domain (setting [2]) was found to be 32 nM; on TYK2-JH2 domain (setting [3]), 0.275 nM; in assay [1] (setting [4]) it was 60.9 nM. The JAK1/TYK2 selectivity at TYK2-JH2 domain (setting [5]) is 116.34.

Take `COc1c(Nc2cc(NC(=O)C3CC3)ncc2C(C)(F)F)cccc1-c1cnn(C)n1` [Example 168, N-(5-(1,1-difluoroethyl)-4-((2-methoxy-3-(2-methyl-2H-1,2,3-triazol-4-yl)phenyl)amino)pyridin-2-yl)cyclopropanecarboxamide]: the IC50 on JAK1-JH2 domain (setting [2]) stood at 1.03 nM; at TYK2-JH2 domain (setting [3]) it was 0.27 nM; in assay [1] (setting [4]), 19.1 nM. Also, the JAK1/TYK2 selectivity at TYK2-JH2 domain (setting [5]) came out at 3.81.

As to `COC(=O)c1cnc(Nc2ccc(F)cn2)cc1Nc1nn(C)c2ccc([C@H](OC)C(F)(F)F)c(OC)c12` [Example 169, Methyl (S)-6-((5-fluoropyridin-2-yl)amino)-4-((4-methoxy-1-methyl-5-(2,2,2-trifluoro-1-methoxyethyl)-1H-indazol-3-yl)amino)nicotinate], the IC50 at JAK1-JH2 domain (setting [2]) is > 298 nM; at TYK2-JH2 domain (setting [3]) it was 0.19 nM; in assay [1] (setting [4]) it was 8.33 nM. Further, the JAK1/TYK2 selectivity on TYK2-JH2 domain (setting [5]) is given as >1571.

For the compound `[2H]C([2H])([2H])NC(=O)c1cnc(Nc2ccc(F)cn2)cc1Nc1nn(C)c2ccc([C@H](OC)C(F)(F)F)c(OC)c12` [Example 171, (S)-6-((5-fluoropyridin-2-yl)amino)-4-((4-methoxy-1-methyl-5-(2,2,2-trifluoro-1-methoxyethyl)-1H-indazol-3-yl)amino)-N-(methyl-d3)nicotinamide], the IC50 was 17 nM on JAK1-JH2 domain (setting [2]), 0.171 nM on TYK2-JH2 domain (setting [3]) and 1.03 nM in assay [1] (setting [4]). At TYK2-JH2 domain (setting [5]), the JAK1/TYK2 selectivity was found to be 99.17.
